Laboratory results from patent publication US8263606B2 (Xenon Pharmaceuticals Inc., priority 2008, dated 2012).

Key:
[1] = tested on: sodium channel; assay: Guanidine influx assay (14C-guanidine radiotracer flux, in vitro); format: cell-based, human or rat; conditions: guanidine influx assay using a known cell line that expresses a sodium channel
In short: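 Aconitine holds channels open while 14C-guanidine enters human or rat sodium-channel-expressing cells in choline-substituted low-sodium saline, with test agent present at ambient temperature. Retained tracer is scintillation-counted and IC50 fitted by a four-parameter logistic model.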

[2] = tested on: inactivated state of the channel of interest (sodium channel); assay: Electrophysiological assay (whole cell voltage clamp, in vitro); format: cell-based; conditions: affinity for the inactivated state of the channel of interest
Protocol: Cells expressing the channel of interest are cultured in DMEM growth media (Gibco) with 0.5 mg/mL G418, +/−1% PSG, and 10% heat-inactivated fetal bovine serum at 37° C. and 5% CO2. For electrophysiological recordings, cells are plated on 10 mm dishes.
Whole cell recordings are examined by established methods of whole cell voltage clamp (Bean et al., op. cit.) using an Axopatch 200B amplifier and Clampex software (Axon Instruments, Union City, Calif.). All experiments are performed at ambient temperature. Electrodes are fire-polished to resistances of 2-4 Mohms Voltage errors and capacitance artifacts are minimized by series resistance compensation and capacitance compensation, respectively. Data are acquired at 40 kHz and filtered at 5 kHz. The external (bath) solution consists of: NaCl (140 mM), KCl (5 mM), CaCl2 (2 mM), MgCl2 (1 mM), HEPES (10 mM) at pH 7.4. The internal (pipette) solution consists of (in mM): NaCl (5), CaCl2 (0.1), MgCl2 (2), CsCl (10), CsF (120), HEPES (10), EGTA (10), at pH 7.2.
To estimate the steady-state affinity of compounds for the resting and inactivated state of the channel (Kr and Ki, respectively), 12.5 ms test pulses to depolarizing voltages from −60 to +90 mV from a holding potential of −120 m V is used to construct current-voltage relationships (I-V curves). A voltage near the peak of the IV-curve (−30 to 0 m V) is used as the test pulse throughout the remainder of the experiment. Steady-state inactivation (availability) curves are then constructed by measuring the current activated during a 8.75 ms test pulse following 1 second conditioning pulses to potentials ranging from −120 to −10 m V.
The steady-state voltage-dependence of binding of a compound to a sodium channel is determined by measuring the blockage of the ionic current at two holding potentials. Binding to rested-state channels is determined by using a holding potential of −120 mV, so that maximal availability is achieved. Binding to inactivated-state channels is evaluated at a holding potential such that only 10% of the channels are available to open. The membrane potential is held at this voltage for at least 10 seconds so that drug binding can equilibrate.
The apparent dissociation constant at each voltage is calculated with the equation:
[formula] where Kd is the dissociation constant (either Kr or Ki), and [Drug] is the concentration of the test compound.
The Example numbers provided in Table 3 correspond to the Examples herein: […]

[3] = biological target: CYP3A4 (Homo sapiens, UniProt P08684); assay: Cytochrome P450 (CYP450) Inhibition Assay, CYP3A4 (Vivid fluorescence, BOMCC substrate); conditions: human, P450 Baculosomes (recombinant CYP3A4), probe BOMCC (Vivid substrate)
Chain of CYP3A4 (P08684 whole entry): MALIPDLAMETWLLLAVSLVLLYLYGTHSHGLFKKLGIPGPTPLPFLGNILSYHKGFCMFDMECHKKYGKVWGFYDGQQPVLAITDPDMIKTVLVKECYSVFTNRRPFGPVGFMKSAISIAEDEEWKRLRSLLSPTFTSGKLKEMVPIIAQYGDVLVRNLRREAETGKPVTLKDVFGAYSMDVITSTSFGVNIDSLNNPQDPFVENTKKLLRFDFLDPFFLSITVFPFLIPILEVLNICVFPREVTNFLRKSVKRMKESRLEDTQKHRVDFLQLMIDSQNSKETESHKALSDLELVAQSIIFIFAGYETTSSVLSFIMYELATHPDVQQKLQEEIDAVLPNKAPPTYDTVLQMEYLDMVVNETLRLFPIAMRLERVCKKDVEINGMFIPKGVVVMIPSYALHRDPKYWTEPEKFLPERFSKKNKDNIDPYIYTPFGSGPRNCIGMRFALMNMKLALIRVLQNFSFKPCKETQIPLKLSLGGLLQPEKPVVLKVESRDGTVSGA

Row | SMILES | IC50 ([1]; activity level class) | inhibition at 10 µM [3] | IC50 [1] | Ki [2]
1 | O=C1N(Cc2ccc(C(F)(F)F)o2)c2c(Cl)cccc2C12COc1cc3c(cc12)CCO3 (centres unmarked) [Example 5.1, 7′-chloro-1′-((5-(trifluoromethyl)furan-2-yl)methyl)-5,6-dihydro-2H-spiro[benzofuro[6,5-b]furan-3,3′-indolin]-2′-one] | 100 to 1000 nM | > 50% |  | < 300 nM
2 | O=C1N(C[C@H]2CCCO2)c2ccccc2C12COc1cc3c(cc12)CCO3 (stereo partly drawn) [Example 4.3, 1′-[(2R)-tetrahydrofuran-2-ylmethyl]-5,6-dihydrospiro[benzo[1,2-b:5,4-b′]difuran-3,3′-indol]-2′(1′H)-one] | 1 to 100 nM | < 50% |  | > 300 nM
3 | O=C1N(Cc2ncccc2C(F)(F)F)c2ccccc2[C@]12COc1cc3c(cc12)OCCO3 [Example 1.12, (8S)-1′-{[3-(trifluoromethyl)pyridin-2-yl]methyl}-2,3-dihydrospiro[furo[2,3-g][1,4]benzodioxine-8,3′-indol]-2′(1′H)-one] | 1 to 100 nM | < 50% |  | < 300 nM
4 | COc1ccc2c(c1)OCC21C(=O)N(C[C@H]2CCCO2)c2ccccc21 (stereo partly drawn) [Example 4.68, 6-methoxy-1′-[(2R)-tetrahydrofuran-2-ylmethyl]spiro[1-benzofuran-3,3′-indol]-2′(1′H)-one] | 100 to 1000 nM | < 50% |  | > 300 nM
5 | COCCCCN1C(=O)C2(COc3cc4c(cc32)OCCO4)c2ccccc21 (centres unmarked) [Example 7.8] |  | < 50% |  | < 300 nM
6 | O=C1N(Cc2ncccc2C(F)(F)F)c2ccccc2[C@@]12COc1cc3c(cc12)OCCO3 [Example 7.15] | 100 to 1000 nM | < 50% |  | > 300 nM
7 | CN1C(=O)COc2cc3c(cc21)OCC31C(=O)N(C[C@H]2CCCO2)c2ccccc21 (stereo partly drawn) [Example 9.23, 4-methyl-1′-(((R)-tetrahydrofuran-2-yl)methyl)-4,7-dihydrospiro[benzofuro[5,6-b][1,4]oxazine-8,3′-indoline]-2′,3(2H)-dione] | 1 to 100 nM | < 50% |  | > 300 nM
8 | CN1C(=O)C2(COc3cc4c(cc32)OC(F)(F)O4)c2ccccc21 (centres unmarked) [Example 2.35] | 1000 to 10000 nM | > 50% |  | > 300 nM
9 | O=C1N(CC2CCCCO2)c2ccccc2C12COc1cc3c(cc12)CCO3 (centres unmarked) [Example 4, 1′-(tetrahydro-2H-pyran-2-ylmethyl)-5,6-dihydrospiro[benzo[1,2-b:5,4-b′]difuran-3,3′-indol]-2′(1′H)-one] | 1 to 100 nM | < 50% |  | > 300 nM
10 | O=C1N(Cc2cccnc2)c2ccccc2C12COc1cc3c(cc12)OCCO3 (centres unmarked) [Example 10.1, 1′-(pyridin-3-ylmethyl)-2,3-dihydrospiro[furo[2,3-g][1,4]benzodioxine-8,3′-indol]-2′(1′H)-one] |  |  |  | > 300 nM
11 | O=C1N(CC2CCOC2)c2ccccc2C12COc1cc3c(cc12)CCO3 (centres unmarked) [Example 4.16, 1′-(tetrahydrofuran-3-ylmethyl)-5,6-dihydrospiro[benzo[1,2-b:5,4-b′]difuran-3,3′-indol]-2′(1′H)-one] | 100 to 1000 nM | < 50% |  | > 300 nM
12 | O=C1N(C[C@H]2CCCO2)c2ccccc2[C@]12COc1cc3c(cc12)CCO3 [Example 11.66, (3S)-1′-[(2R)-tetrahydrofuran-2-ylmethyl]-5,6-dihydrospiro[benzo[1,2-b:5,4-b′]difuran-3,3′-indol]-2′(1′H)-one] |  |  | 1 to 100 nM | > 300 nM
13 | O=C1N(Cc2ncccc2C(F)(F)F)c2ccccc2C12OCOc1cc3c(cc12)OCCO3 (centres unmarked) [Example 2.54, 1′-{[3-(trifluoromethyl)pyridin-2-yl]methyl}-7,8-dihyrdospiro[1,4-dioxino[2,3-g][1,3]benzodioxine-4,3′-indol]-2′(1′H)-one] |  | < 50% |  | > 300 nM
14 | O=C1N(CC2CCCOC2)c2ccccc2C12COc1cc3c(cc12)CCO3 (centres unmarked) [Example 4.10, 1′-(tetrahydro-2H-pyran-3-ylmethyl)-5,6-dihydrospiro[benzo[1,2-b:5,4-b′]difuran-3,3′-indol]-2′(1′H)-one] | 1 to 100 nM | < 50% |  | > 300 nM
15 | O=C1N(CC2CCO2)c2ccccc2C12COc1cc3c(cc12)CCO3 (centres unmarked) [Example 4.20, 1′-(oxetan-2-ylmethyl)-5,6-dihydrospiro[benzo[1,2-b:5,4-b′]difuran-3,3′-indol]-2′(1′H)-one] | 100 to 1000 nM | < 50% |  | > 300 nM
16 | CN(C)c1ccc(-c2cccc3c2C2(COc4cc5c(cc42)CCO5)C(=O)N3C[C@H]2CCCO2)cn1 (stereo partly drawn) [Example 16, 4′-[6-(dimethylamino)pyridin-3-yl]-1′-[(2R)-tetrahydrofuran-2-ylmethyl]-5,6-dihydrospiro[benzo[1,2-b:5,4-b′]difuran-3,3′-indol]-2′(1′H)-one] |  | > 50% | 100 to 1000 nM | > 300 nM
17 | CCCCCN1C(=O)[C@]2(COc3cc4c(cc32)OCCO4)c2ccccc21 [Example 7.4, (R)-1′-pentyl-2,3-dihydrospiro[furo[2,3-g][1,4]benzodioxine-8,3′-indol]-2′(1′H)-one] |  | > 50% |  | > 300 nM

The next lines start with results.

Row | IC50 ([1]; activity level class) | inhibition at 10 µM [3] | IC50 [1] | SMILES | Ki [2]
18 |  | < 50% | 100 to 1000 nM | CC(C)COc1ccc(-c2cccc3c2C2(COc4cc5c(cc42)CCO5)C(=O)N3C[C@H]2CCCO2)cc1 (stereo partly drawn) [Example 16.7, 4′-[4-(2-methylpropoxy)phenyl]-1′-[(2R)-tetrahydrofuran-2-ylmethyl]-5,6-dihydrospiro[benzo[1,2-b:5,4-b′]difuran-3,3′-indol]-2′(1′H)-one] | < 300 nM
19 |  | > 50% | 1000 to 10000 nM | O=C1N(C[C@H]2CCCO2)c2cccc(-c3cncnc3)c2C12COc1cc3c(cc12)CCO3 (stereo partly drawn) [Example 16.10, 4′-pyrimidin-5-yl-1′-[(2R)-tetrahydrofuran-2-ylmethyl]-5,6-dihydrospiro[benzo[1,2-b:5,4-b′]difuran-3,3′-indol]-2′(1′H)-one] | > 300 nM
20 |  | > 50% | 1 to 100 nM | COc1ccc(-c2cccc3c2C2(COc4cc5c(cc42)CCO5)C(=O)N3C[C@H]2CCCO2)cc1 (stereo partly drawn) [Example 16.9, 4′-(4-methoxyphenyl)-1′-[(2R)-tetrahydrofuran-2-ylmethyl]-5,6-dihydrospiro[benzo[1,2-b:5,4-b′]difuran-3,3′-indol]-2′(1′H)-one] | < 300 nM
21 |  | < 50% | 1000 to 10000 nM | O=C1N(C[C@H]2CCCO2)c2ccccc2[C@@]12COc1cc3c(cc12)CCO3 [Example 11.67, (3R)-1′-[(2R)-tetrahydrofuran-2-ylmethyl]-5,6-dihydrospiro[benzo[1,2-b:5,4-b′]difuran-3,3′-indol]-2′(1′H)-one] | > 300 nM
22 |  | < 50% | 1000 to 10000 nM | O=C1N(C[C@@H]2CCCO2)c2ccccc2[C@]12COc1cc3c(cc12)CCO3 [Example 11.69, (3S)-1′-[(2S)-tetrahydrofuran-2-ylmethyl]-5,6-dihydrospiro[benzo[1,2-b:5,4-b′]difuran-3,3′-indol]-2′(1′H)-one] | > 300 nM
23 |  | < 50% | 1 to 100 nM | COc1cc2c(cc1C)[C@@]1(CO2)C(=O)N(CN2CCN(C)CC2)c2ccccc21 [Example 11.64, (3S)-6-methoxy-5-methyl-1′-[(4-methylpiperazin-1-yl)methyl]spiro[1-benzofuran-3,3′-indol]-2′(1′H)-one hydrogen chloride] | > 300 nM
24 |  | > 50% |  | CN1C(=O)C2(COc3cc4c(cc32)OCCO4)c2c(Oc3ccccc3)cccc21 (centres unmarked) [Example 16.80, 1′-methyl-4-phenoxy-2,3-dihydrospiro[furo[2,3-g][1,4]benzodioxine-8,3′-indol]-2′(1′H)-one] | < 300 nM
